Where a name gives a salt, the structure may show the parent alone.

In assay [1] the test system is MeWo human melanoma cells. Put plainly: Tail-vein lung metastatic colonization by MeWo cells in NOD Scid mice. In kind it is in vivo. As to conditions: MeWo cells pre-treated 1 μM, 48 hours. The protocol: FIG. 6. LXR Agonism Suppresses Melanoma Metastasis to the Lung and Brain. (A) MeWo cells were pre-treated with DMSO or GW3965 (1 μM) for 48 hours and 4×10^4 cells were intravenously injected via the tail-vein into NOD Scid mice. Lung colonization was monitored by weekly bioluminescence imaging. Representative H&E-stained lungs correspond to the final day (d70) are shown. n=4-5. (B-C) Bioluminescence imaging of lung metastasis by 4×10^4 MeWo cells intravenously injected into NOD Scid mice that were fed a control chow or a chow containing GW3965 (20 mg/kg) or T0901317 (20 mg/kg) starting 10 days prior to cancer cell injection. Representative H&E-stained lungs correspond to final imaging day n=5-6. […] (H) Ex-vivo lung photon flux, determined by bioluminescence imaging, in NOD Scid mice that were administered a control chow or a chow containing GW3965 (100 mg/kg) for 1 month following the excision of size-matched (˜300-mm^3 in volume) subcutaneous melanoma tumors formed by 1×10^6 MeWo melanoma cells. […] Following initiation of metastases, detected by bioluminescence imaging on d42, mice were administered a control diet or a GW3965 diet (100 mg/kg) as indicated, and lung colonization progression was measured weekly. n=6. […]

Assay [2] deals with DTIC-resistant MeWo human melanoma cells. As to conditions: oral, diet 100 mg/kg. The protocol:
Tumor growth was measured twice a week.

In assay [3] the test system is SK-Mel-239 vemurafenib-resistant clone cells. As to conditions: diet 100 mg/kg.
The test system of assay [4] is SK-Mel-2 human melanoma cells. Put plainly: Subcutaneous SK-Mel-2 tumor growth in immunocompromised mice. It is filed as in vivo. The note with it: oral. The protocol:
(§1) FIG. 4. Therapeutic LXR Activation Inhibits Melanoma Tumor Growth. […] Representative tumor images shown correspond to tumors extracted at the final day (d12). n=10-18 (A), 8-10 (B). (C-E) Primary tumor growth by 1×10^6 MeWo (C), […] SK-Mel-334.2 (D), and 2×10^6 SK-Mel-2 (E) human melanoma cells subcutaneously injected into immunocompromised mice. […] Tumor images shown correspond to last day of measurements. n=6-34 (C), 8 (D), 5 (E). (F) 5×10^4 B16F10 cells were injected subcutaneously into C57BL/6-WT mice. Upon tumor growth to 150 mm^3, mice were fed continuously with a control chow or a chow containing GW3965 (150 mg/kg), and tumor growth was measured daily. n=6-13. […] Tumor volume was calculated as (small diameter)^2×(large diameter)/2. […] Scale bars, 5 mm (A-D), 50 μm (J, K), 25 μm (L).

Assay [5] relates to SK-Mel-334.2 primary human melanoma line. Description: Subcutaneous SK-Mel-334.2 tumor growth in immunocompromised mice. In kind it is in vivo. As to conditions: oral. The protocol: as §1
Assay [6] concerns B16F10 mouse melanoma cells. Description: Subcutaneous B16F10 tumor growth in C57BL/6 mice. In kind it is in vivo. The protocol:
as §1
The mice were palpated daily for tumor formation and after detection of tumors measuring […] in volume, the mice were assigned to a control chow or a chow containing each respective LXR agonist: LXR-623 (20 mg/kg/day), WO-2007-002563 Ex. 19 (100 mg/kg/day), WO-2010-0138598 Ex. 9 (10 mg/kg/day or 100 mg/kg/day), or SB742881 (100 mg/kg/day). The LXR drug compounds were formulated in the mouse chow by Research Diets, Inc. Tumor dimensions were measured using digital calipers, and tumor volume was calculated as (small diameter)^2×(large diameter)/2.

For assay [7], the system named is amyloid plaque pathology and memory deficits. As to conditions: oral delivery; cited from earlier work.

Consider `O=C(O)Cc1cccc(OCCCN(Cc2cccc(C(F)(F)F)c2Cl)CC(c2ccccc2)c2ccccc2)c1` [GW3965 108, 3-[3-[N-(2-Chloro-3-trifluoromethylbenzyl)-(2,2-diphenylethyl)amino]propyloxy] phenylacetic acid hydrochloride], for which the “reduction in metastatic colonization capacity after pre-treatment of cells” value in assay [1] is listed as “more than 50 fold”. Besides, the “growth of in vivo-derived DTIC-resistant human melanoma tumors (MeWo)” value in assay [2] is “strongly inhibited”. Also, the “suppression of growth of the SK-Mel-239 vemurafenib-resistant line” value in assay [3] worked out at 72%. The “inhibition of tumor growth, SK-Mel-2” value in assay [4] was 49%. Moreover, the “inhibition of tumor growth, SK-Mel-334.2” value in assay [5] is on record as 73%. Also, the “primary tumor growth in vivo (FIG. 4)” value in assay [6] (mouse, in vivo) is “inhibit”. Moreover, the “reduction in the growth of established large B16F10 tumors” value in assay [6] (tumors ~150 mm^3 at start, chow 150 mg/kg) was “roughly 50%”. Also, in assay [7], the “amyloid plaque pathology and memory deficits” value is “improve amyloid plaque pathology and memory deficits”.

Source of the values: patent US20190125745A1, “TREATMENT AND DIAGNOSIS OF CANCER” (Rgenix, Inc., priority 2014, published 2019).
